# Reference: patent US20250163104A1, “MACROCYCLIC IMMUNOMODULATORS” (priority 2021, published 2025)
# pIC50: −log10 of the molar value. Where a SMILES comes first, the peptide text is derived from it. Bridges are numbered along the chain shown (N, C = ends). [ ]: non-standard residue; d: D form. The star is where a group is joined. Bip = N[C@@H](Cc1ccc(-c2ccccc2)cc1)C(=O)O; Cha = N[C@@H](CC1CCCCC1)C(=O)O; Cit = NC(=O)NCCC[C@H](N)C(=O)O; dNle = CCCC[C@@H](N)C(=O)O; Carboxymethyl = O=C(O)C*; Orn = NCCC[C@H](N)C(=O)O; Dab = NCC[C@H](N)C(=O)O
# Target: T1, human PD-1 / PD-L1-Ig binding on Jurkat cell line over-expressing human PD-1 (Jurkat-PD-1) (Homo sapiens, UniProt Q15116)
# T1 construct: expressed in transfected cells; host or cells: Jurkat
# Assay: Jurkat-PD-1 Cell Binding High-Content Screening Assay (CBA)
# Type: cell-based
# Settings: Jurkat-PD-1 cells, PE-labeled PD-L1-Ig 20 nM final; read-out: Jurkat HPD1_PDL1 IC50
# Outline: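 Binding of fluorescent PD-L1-Ig (phycoerythrin linked via the Ig tag, 20 nM final) to PD-1-overexpressing Jurkat cells was imaged after a 2 h, 37° C compound pretreatment and 1 hour ligand incubation.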
# T1 sequence (Q15116 25-288): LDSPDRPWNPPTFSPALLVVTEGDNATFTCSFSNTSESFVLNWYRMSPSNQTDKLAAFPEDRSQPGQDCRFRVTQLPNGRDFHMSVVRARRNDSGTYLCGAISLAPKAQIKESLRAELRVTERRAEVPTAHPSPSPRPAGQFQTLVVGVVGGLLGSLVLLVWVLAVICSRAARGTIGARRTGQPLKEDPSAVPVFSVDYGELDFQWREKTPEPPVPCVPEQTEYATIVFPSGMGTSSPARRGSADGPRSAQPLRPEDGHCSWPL
row,Compound,pIC50
1,CC(C)C[C@H]1NC(=O)[C@H](CCCN)NC(=O)[C@H](CCC(=O)O)NC(=O)[C@H](Cc2ccc(-c3ccccc3)cc2)NC(=O)[C@H](C(C)C)NC(=O)[C@H](Cc2c[nH]c3ccccc23)NC(=O)[C@H](CC(=O)O)NC(=O)[C@H](Cc2ccc(OCC(=O)O)cc2)NC(=O)[C@H](Cc2ccc(OCC(=O)O)cc2)NC(=O)CSC[C@@H](C(=O)N[C@@H](C)C(N)=O)NC(=O)[C@H]([C@@H](C)O)NC(=O)[C@H](C(C)C)NC(=O)[C@H](Cc2ccc(O)cc2)NC(=O)[C@H](CCN)NC1=O [Compound 1688] ({CH2CO}-Y(Carboxymethyl)Y(Carboxymethyl)DWV[Bip]E[Orn][dL][Dab]YVTCA-NH2; thioether N-14),6.20
2,CC(C)C[C@H]1NC(=O)[C@H](CCCN)NC(=O)[C@H](C(C)C)NC(=O)[C@H](Cc2ccc(-c3ccccc3)cc2)NC(=O)[C@H](C(C)C)NC(=O)[C@H](Cc2c[nH]c3ccccc23)NC(=O)[C@H](CC(=O)O)NC(=O)[C@H](Cc2ccc(C(=O)O)cc2)NC(=O)[C@H](Cc2ccncc2)NC(=O)CSC[C@@H](C(=O)N[C@@H](C)C(N)=O)NC(=O)[C@H]([C@@H](C)O)NC(=O)[C@H](C(C)C)NC(=O)[C@H](CC2CCCCC2)NC(=O)[C@H](CCN)NC1=O [Compound 1689],7.57
3,CC(C)C[C@H]1NC(=O)[C@H](CCCN)NC(=O)[C@H](C(C)C)NC(=O)[C@H](Cc2ccc(-c3ccccc3)cc2)NC(=O)[C@H](C(C)C)NC(=O)[C@H](Cc2c[nH]c3ccccc23)NC(=O)[C@H](CC(=O)O)NC(=O)[C@H](Cc2ccc(OCC(=O)O)cc2)NC(=O)[C@H](Cc2ccc(OCC(=O)O)cc2)NC(=O)CSC[C@@H](C(=O)N[C@@H](C)C(N)=O)NC(=O)[C@H]([C@@H](C)O)NC(=O)[C@H](C(C)C)NC(=O)[C@H](CC2CCCCC2)NC(=O)[C@H](CCN)NC1=O [Compound 1690],7.91
4,CC(C)C[C@H]1NC(=O)[C@H](CCCN)NC(=O)[C@H](C(C)C)NC(=O)[C@H](Cc2ccc(-c3ccccc3)cc2)NC(=O)[C@H](C(C)C)NC(=O)[C@H](Cc2c[nH]c3ccccc23)NC(=O)[C@H](CC(=O)O)NC(=O)[C@H](Cc2ccc(C(=O)O)cc2)NC(=O)[C@H](Cc2ccc(OCC(=O)O)cc2)NC(=O)CSC[C@@H](C(=O)N[C@@H](C)C(N)=O)NC(=O)[C@H]([C@@H](C)O)NC(=O)[C@H](C(C)C)NC(=O)[C@H](CC2CCCCC2)NC(=O)[C@H](CCN)NC1=O [Compound 1691],7.48
5,CCCC[C@H]1NC(=O)[C@H](CCCN)NC(=O)[C@H](C(C)C)NC(=O)[C@H](Cc2ccc(-c3ccccc3)cc2)NC(=O)[C@H](C(C)C)NC(=O)[C@H](Cc2c[nH]c3ccccc23)NC(=O)[C@H](CC(=O)O)NC(=O)[C@H](Cc2ccc(OCC(=O)O)cc2)NC(=O)[C@H](CN)NC(=O)CSC[C@@H](C(=O)N[C@@H](C)C(N)=O)NC(=O)[C@H]([C@@H](C)O)NC(=O)[C@H](C(C)C)NC(=O)[C@H](CC2CCCCC2)NC(=O)[C@H](CCN)NC1=O [Compound 1692],7.97
6,CCCC[C@H]1NC(=O)[C@H](CCCN)NC(=O)[C@H](C(C)C)NC(=O)[C@H](Cc2ccc(-c3ccccc3)cc2)NC(=O)[C@H](C(C)C)NC(=O)[C@H](Cc2c[nH]c3ccccc23)NC(=O)[C@H](CC(=O)O)NC(=O)[C@H](Cc2ccc(OCC(=O)O)cc2)NC(=O)[C@H](Cc2ccncc2)NC(=O)CSC[C@@H](C(=O)N[C@@H](C)C(N)=O)NC(=O)[C@H]([C@@H](C)O)NC(=O)[C@H](C(C)C)NC(=O)[C@H](CC2CCCCC2)NC(=O)[C@H](CCN)NC1=O [Compound 1693],8.04
7,CCCC[C@H]1NC(=O)[C@H](CCCN)NC(=O)[C@H](C(C)C)NC(=O)[C@H](Cc2ccc(-c3ccccc3)cc2)NC(=O)[C@H](C(C)C)NC(=O)[C@H](Cc2c[nH]c3ccccc23)NC(=O)[C@H](CC(=O)O)NC(=O)[C@H](Cc2ccncc2)NC(=O)[C@H](Cc2ccc(OCC(=O)O)cc2)NC(=O)CSC[C@@H](C(=O)N[C@@H](C)C(N)=O)NC(=O)[C@H]([C@@H](C)O)NC(=O)[C@H](C(C)C)NC(=O)[C@H](CC2CCCCC2)NC(=O)[C@H](CCN)NC1=O [Compound 1694],7.46
8,CCCC[C@H]1NC(=O)[C@H](CCCN)NC(=O)[C@H](C(C)C)NC(=O)[C@H](Cc2ccc(-c3ccccc3)cc2)NC(=O)[C@H](C(C)C)NC(=O)[C@H](Cc2c[nH]c3ccccc23)NC(=O)[C@H](CC(=O)O)NC(=O)[C@H](Cc2ccncc2)NC(=O)[C@H](CN)NC(=O)CSC[C@@H](C(=O)N[C@@H](C)C(N)=O)NC(=O)[C@H]([C@@H](C)O)NC(=O)[C@H](C(C)C)NC(=O)[C@H](CC2CCCCC2)NC(=O)[C@H](CCN)NC1=O [Compound 1695],7.46
9,CCCC[C@H]1NC(=O)[C@H](CCCN)NC(=O)[C@H](C(C)C)NC(=O)[C@H](Cc2ccc(-c3ccccc3)cc2)NC(=O)[C@H](C(C)C)NC(=O)[C@H](Cc2c[nH]c3ccccc23)NC(=O)[C@H](CC(=O)O)NC(=O)[C@H](Cc2ccc(O)cc2)NC(=O)[C@H](CC(N)=O)NC(=O)CSC[C@@H](C(=O)N[C@@H](C)C(N)=O)NC(=O)[C@H]([C@@H](C)O)NC(=O)[C@H](C(C)C)NC(=O)[C@H](CC2CCCCC2)NC(=O)[C@H](CCN)NC1=O [Compound 1696] ({CH2CO}-NYDWV[Bip]V[Orn][dNle][Dab][Cha]VTCA-NH2; thioether N-14),7.73
10,CCCC[C@H]1NC(=O)[C@H](CCCN)NC(=O)[C@H](CCCNC(N)=O)NC(=O)[C@H](Cc2ccc(-c3ccccc3)cc2)NC(=O)[C@H](C(C)C)NC(=O)[C@H](Cc2c[nH]c3ccccc23)NC(=O)[C@H](CC(=O)O)NC(=O)[C@H](Cc2ccc(OCC(=O)O)cc2)NC(=O)[C@H](Cc2ccc(OCC(=O)O)cc2)NC(=O)CSC[C@@H](C(=O)N[C@@H](C)C(N)=O)NC(=O)[C@H]([C@@H](C)O)NC(=O)[C@H](C(C)C)NC(=O)[C@H](CC2CCCCC2)NC(=O)[C@H](CCN)NC1=O [Compound 1698],7.49
11,CCCC[C@H]1NC(=O)[C@H](CCCN)NC(=O)[C@H](CCCNC(N)=O)NC(=O)[C@H](Cc2ccc(-c3ccccc3)cc2)NC(=O)[C@H](C(C)C)NC(=O)[C@H](Cc2c[nH]c3ccccc23)NC(=O)[C@H](CC(=O)O)NC(=O)[C@H](Cc2ccc(OCC(=O)O)cc2)NC(=O)[C@H](CN)NC(=O)CSC[C@@H](C(=O)N[C@@H](C)C(N)=O)NC(=O)[C@H]([C@@H](C)O)NC(=O)[C@H](C(C)C)NC(=O)[C@H](CC2CCCCC2)NC(=O)[C@H](CCN)NC1=O [Compound 1700],7.67
12,CCCC[C@H]1NC(=O)[C@H](CCCN)NC(=O)[C@H](CCCNC(N)=O)NC(=O)[C@H](Cc2ccc(-c3ccccc3)cc2)NC(=O)[C@H](C(C)C)NC(=O)[C@H](Cc2c[nH]c3ccccc23)NC(=O)[C@H](CC(=O)O)NC(=O)[C@H](Cc2ccc(OCC(=O)O)cc2)NC(=O)[C@H](Cc2ccncc2)NC(=O)CSC[C@@H](C(=O)N[C@@H](C)C(N)=O)NC(=O)[C@H]([C@@H](C)O)NC(=O)[C@H](C(C)C)NC(=O)[C@H](CC2CCCCC2)NC(=O)[C@H](CCN)NC1=O [Compound 1701],7.61
13,CCCC[C@H]1NC(=O)[C@H](CCCN)NC(=O)[C@H](CCCNC(N)=O)NC(=O)[C@H](Cc2ccc(-c3ccccc3)cc2)NC(=O)[C@H](C(C)C)NC(=O)[C@H](Cc2c[nH]c3ccccc23)NC(=O)[C@H](CC(=O)O)NC(=O)[C@H](Cc2ccncc2)NC(=O)[C@H](Cc2ccc(OCC(=O)O)cc2)NC(=O)CSC[C@@H](C(=O)N[C@@H](C)C(N)=O)NC(=O)[C@H]([C@@H](C)O)NC(=O)[C@H](C(C)C)NC(=O)[C@H](CC2CCCCC2)NC(=O)[C@H](CCN)NC1=O [Compound 1702],7.77
14,CCCC[C@H]1NC(=O)[C@H](CCCN)NC(=O)[C@H](CCCNC(N)=O)NC(=O)[C@H](Cc2ccc(-c3ccccc3)cc2)NC(=O)[C@H](C(C)C)NC(=O)[C@H](Cc2c[nH]c3ccccc23)NC(=O)[C@H](CC(=O)O)NC(=O)[C@H](Cc2ccncc2)NC(=O)[C@H](CN)NC(=O)CSC[C@@H](C(=O)N[C@@H](C)C(N)=O)NC(=O)[C@H]([C@@H](C)O)NC(=O)[C@H](C(C)C)NC(=O)[C@H](CC2CCCCC2)NC(=O)[C@H](CCN)NC1=O [Compound 1703],7.60
15,CCCC[C@H]1NC(=O)[C@H](CCCN)NC(=O)[C@H](CCCNC(N)=O)NC(=O)[C@H](Cc2ccc(-c3ccccc3)cc2)NC(=O)[C@H](C(C)C)NC(=O)[C@H](Cc2c[nH]c3ccccc23)NC(=O)[C@H](CC(=O)O)NC(=O)[C@H](Cc2ccc(O)cc2)NC(=O)[C@H](CC(N)=O)NC(=O)CSC[C@@H](C(=O)N[C@@H](C)C(N)=O)NC(=O)[C@H]([C@@H](C)O)NC(=O)[C@H](C(C)C)NC(=O)[C@H](CC2CCCCC2)NC(=O)[C@H](CCN)NC1=O [Compound 1704] ({CH2CO}-NYDWV[Bip][Cit][Orn][dNle][Dab][Cha]VTCA-NH2; thioether N-14),7.45
16,CCCC[C@H]1NC(=O)[C@H](CCCN)NC(=O)[C@H]([C@@H](C)CC)NC(=O)[C@H](Cc2ccc(-c3ccccc3)cc2)NC(=O)[C@H](C(C)C)NC(=O)[C@H](Cc2c[nH]c3ccccc23)NC(=O)[C@H](CC(=O)O)NC(=O)[C@H](Cc2ccc(C(=O)O)cc2)NC(=O)[C@H](Cc2ccncc2)NC(=O)CSC[C@@H](C(=O)N[C@@H](C)C(N)=O)NC(=O)[C@H]([C@@H](C)O)NC(=O)[C@H](C(C)C)NC(=O)[C@H](CC2CCCCC2)NC(=O)[C@H](CCN)NC1=O [Compound 1705],7.84
17,CCCC[C@H]1NC(=O)[C@H](CCCN)NC(=O)[C@H]([C@@H](C)CC)NC(=O)[C@H](Cc2ccc(-c3ccccc3)cc2)NC(=O)[C@H](C(C)C)NC(=O)[C@H](Cc2c[nH]c3ccccc23)NC(=O)[C@H](CC(=O)O)NC(=O)[C@H](Cc2ccc(OCC(=O)O)cc2)NC(=O)[C@H](Cc2ccc(OCC(=O)O)cc2)NC(=O)CSC[C@@H](C(=O)N[C@@H](C)C(N)=O)NC(=O)[C@H]([C@@H](C)O)NC(=O)[C@H](C(C)C)NC(=O)[C@H](CC2CCCCC2)NC(=O)[C@H](CCN)NC1=O [Compound 1706],7.94
